Measurements as given in patent publication US8163766B2, “Beta-secretase modulators and methods of use” (Amgen Inc., priority 2005, dated 2012).

Tested on: Aβ 40 in conditioned media of cells stably expressing Amyloid Precursor Protein (APP)
Assay: BACE Cell-Based Assay (Aβ40 in conditioned medium, sandwich ELISA)
Settings: 24 hours of incubation with the test compounds, Aβ 40 by sandwich ELISA, read-out: IC50 values in the cell-based assay (inhibition of Aβ 40)
Description: The cell-based assay measures inhibition or reduction of Aβ40 in conditioned medium of test compound treated cells, which express amyloid precursor protein.
Cells stably expressing Amyloid Precursor Protein (APP) were plated at a density of 40K cells/well in 96 well plates (Costar). The cells were cultivated for 24 h at 37° C. and 5% CO2 in DMEM supplemented with 10% FBS. The test compounds were then added to cells in 10-point dose response concentrations with the starting concentration being either 100 μM or 10 μM. The compounds were diluted from stock solutions in DMSO and the final DMSO concentration of the test compounds on cells was 0.1%. After 24 hours of incubation with the test compounds the supernatant conditioned media was collected and the Aβ 40 levels were determined using a sandwich ELISA. The IC50 of the compound was calculated from the percent of control or percent inhibition of Aβ 40 as a function of the concentration of the test compound.
The sandwich ELISA to detect Aβ 40 was performed in 96 well microtiter plates, which were pre-treated with goat anti-rabbit IgG (Pierce). The capture and detecting antibody pair that were used to detect Aβ 40 from cell supernatants were affinity purified pAb40 (Biosource) and biotinylated 6E10 (Signet Labs Inc.), respectively. The optimal concentration for the pAb40 antibody was 3 μg/ml in Superblock/TBS (Pierce) that was supplemented with 0.05% Tween 20 (Sigma). Optimal concentration for the detection antibody 6E10-biotinylated was […] in Superblock/TBS (Pierce) that had been supplemented with 2% normal goat serum and 2% normal mouse serum.
Cellular supernatants were incubated with the capture antibody for 3 h at 4° C., followed by 3 wash steps in TBS-tween (0.05%). The detecting antibody incubation was for 2 h at 4° C., again followed by the wash steps as described previously. The final readout of the ELISA is Time-Resolved Fluorescence (counts per minute) using Delfia reagents Streptavidin-Europium and Enhancement solutions (Perkin Elmer) and the Victor 2 multilabel counter (Perkin Elmer).

IC50 [µM] | SMILES
≤ 5 | CCc1ccc2c(c1)C(NC[C@@H](O)[C@H](Cc1ccccc1)NC(=O)c1cc(C#N)c(=O)n(C3CCCC3)c1)CC1(CCCC1)O2 (some centres unmarked) [Example 1]
≤ 5 | CCc1ccc2c(c1)C(NC[C@@H](O)[C@H](Cc1ccccc1)NC(=O)c1ccc(=O)n(C3CCCC3)c1)CC1(CCCC1)O2 (some centres unmarked) [Example 2]
≤ 5 | CCc1ccc2c(c1)C(NC[C@@H](O)[C@H](Cc1ccccc1)NC(=O)c1cc(-c3ccccc3F)c(=O)n(C3CCCC3)c1)CC1(CCCC1)O2 (some centres unmarked) [Example 3]
≤ 5 | CCc1ccc2c(c1)C(NC[C@@H](O)[C@H](Cc1ccccc1)NC(=O)c1cc(-c3ccccn3)c(=O)n(C3CCCC3)c1)CC1(CCCC1)O2 (some centres unmarked) [Example 5]
≤ 5 | CCc1ccc2c(c1)C(NC[C@@H](O)[C@H](Cc1ccccc1)NC(=O)c1cc(-n3cccn3)c(=O)n(C3CCCC3)c1)CC1(CCCC1)O2 (some centres unmarked) [Example 6]
≤ 5 | CCc1ccc2c(c1)C(NC[C@@H](O)[C@H](Cc1ccccc1)NC(=O)c1cc(-c3ccc(F)cc3)c(=O)n(C3CCCC3)c1)CC1(CCCC1)O2 (some centres unmarked) [Example 7]
≤ 5 | CCc1ccc2c(c1)C(NC[C@@H](O)[C@H](Cc1ccccc1)NC(=O)c1cc(-c3ccccc3)c(=O)n(C3CCCC3)c1)CC1(CCCC1)O2 (some centres unmarked) [Example 8]
≤ 5 | CCc1ccc2c(c1)C(NC[C@@H](O)[C@H](Cc1ccccc1)NC(=O)c1cc(-c3cccc(F)c3)c(=O)n(C3CCCC3)c1)CC1(CCCC1)O2 (some centres unmarked) [Example 9]
≤ 5 | CCc1ccc2c(c1)C(NC[C@@H](O)[C@H](Cc1ccccc1)NC(=O)c1ccc(=O)n(C3CCC(c4ccccc4)C3)c1)CC1(CCCC1)O2 (some centres unmarked) [Example 10]
≤ 5 | CCc1ccc2c(c1)C(NC[C@@H](O)[C@H](Cc1ccccc1)NC(=O)c1ccc(=O)n(C3CCCC(c4ccccc4)C3)c1)CC1(CCCC1)O2 (some centres unmarked) [Example 12]
≤ 5 | CCc1ccc2c(c1)C(NC[C@@H](O)[C@H](Cc1ccccc1)NC(=O)c1cc(-c3cccnc3)c(=O)n(C3CCCC3)c1)CC1(CCCC1)O2 (stereo partly drawn) [Example 14, 1-cyclopentyl-N-((2S,3R)-4-(6-ethyl-2,2-spirocyclopentylchroman-4-ylamino)-3-hydrodroxy-1-phenylbutan-2-yl)-6-OXO-5-(pyridine-3-yl)-1,6-dihydropyridine-3-carboxamide]
≤ 5 | CCc1ccc2c(c1)C(NC[C@@H](O)[C@H](Cc1ccccc1)NC(=O)c1cc(-c3ccncc3)c(=O)n(C3CCCC3)c1)CC1(CCCC1)O2 (stereo partly drawn) [Example 15, 1-cyclopentyl-N-((2S,3R)-4-(6-ethyl-2,2-spirocyclopentylchroman-4-ylamino)-3-hydrodroxy-1-phenylbutan-2-yl)-6-OXO-5-(pyridin-4-yl)-1,6-dihydropyridine-3-carboxamide]
≤ 5 | CCc1ccc2c(c1)C(NC[C@@H](O)[C@H](Cc1ccccc1)NC(=O)c1cc(-c3cncnc3)c(=O)n(C3CCCC3)c1)CC1(CCCC1)O2 (stereo partly drawn) [Example 16, 1-cyclopentyl-N-((2S,3R)-4-(6-ethyl-2,2-spirocyclopentylchroman-4-ylamino)-3-hydrodroxy-1-phenylbutan-2-yl)-6-OXO-5-(pyrimidin-5-yl)-1,6-dihydropyridine-3-carboxamide]
≤ 5 | CCc1ccc2c(c1)C(NC[C@@H](O)[C@H](Cc1ccccc1)NC(=O)c1cc(N3CCCC3)c(=O)n(C3CCCC3)c1)CC1(CCCC1)O2 (stereo partly drawn) [Example 17, 1-cyclopentyl-N-((2S,3R)-4-(6-ethyl-2,2-spirocyclopentylchroman-4-ylamino)-3-hydrodroxy-1-phenylbutan-2-yl)-6-OXO-5-(pyrrolidin-1-yl)-1,6-dihydropyridine-3-carboxamide]
≤ 5 | CCc1ccc2c(c1)C(NC[C@@H](O)[C@H](Cc1ccccc1)NC(=O)c1cc(NC(C)C)c(=O)n(C3CCCC3)c1)CC1(CCCC1)O2 (stereo partly drawn) [Example 18, 1-cyclopentyl-N-((2S,3R)-4-(6-ethyl-2,2-spirocyclopentylchroman-4-ylamino)-3-hydrodroxy-1-phenylbutan-2-yl)-5-(isopropylamino)-6-oxo-1,6-dihydropyridine-3-carboxamide]
≤ 5 | CCc1ccc2c(c1)C(NC[C@@H](O)[C@H](Cc1ccccc1)NC(=O)c1cc(N(C)C)c(=O)n(C3CCCC3)c1)CC1(CCCC1)O2 (stereo partly drawn) [Example 19, 1-cyclopentyl-5-(dimethylamino)-N-((2S,3R)-4-(6-ethyl-2,2-spirocyclopentylchroman-4-ylamino)-3-hydrodroxy-1-phenylbutan-2-yl)-6-oxo-1,6-dihydropyridine-3-carboxamide]
≤ 5 | CCc1ccc2c(c1)C(NC[C@@H](O)[C@H](Cc1ccccc1)NC(=O)c1cc(-c3cnccn3)c(=O)n(C3CCCC3)c1)CC1(CCCC1)O2 (stereo partly drawn) [Example 22, 1-cyclopentyl-N-((2S,3R)-4-(6-ethyl-2,2-spirocyclopentylchroman-4-ylamino)-3-hydrodroxy-1-phenylbutan-2-yl)-6-oxo-5-(pyrazin-2-yl)-1,6-dihydropyridine-3-carboxamide]
≤ 5 | CCc1ccc2c(c1)C(NC[C@@H](O)[C@H](Cc1ccccc1)NC(=O)c1cc(C3CCCCO3)c(=O)n(C3CCCC3)c1)CC1(CCCC1)O2 (stereo partly drawn) [Example 23, 1-cyclopentyl-N-((2S,3R)-4-(6-ethyl-2,2-spirocyclopentylchroman-4-ylamino)-3-hydrodroxy-1-phenylbutan-2-yl)-6-OXO-5-(tetrahydro-2H-pyran-2-yl)-1,6-dihydropyridine-3-carboxamide]
≤ 5 | CCc1ccc2c(c1)C(NC[C@@H](O)[C@H](Cc1ccccc1)NC(=O)c1cc(C3CCCO3)c(=O)n(C3CCCC3)c1)CC1(CCCC1)O2 (stereo partly drawn) [Example 24, 1-cyclopentyl-N-((2S,3R)-4-(6-ethyl-2,2-spirocyclopentylchroman-4-ylamino)-3-hydrodroxy-1-phenylbutan-2-yl)-6-OXO-5-(tetrahydrofuran-2-yl)-1,6-dihydropyridine-3-carboxamide]
≤ 5 | CCc1ccc2c(c1)[C@@H](NC[C@@H](O)[C@H](Cc1ccccc1)NC(=O)C1CN(Cc3ccccc3)CCO1)CC1(CCCC1)O2 (stereo partly drawn) [Example 29, 4-Benzyl-N-((2S,3R)-4-((S)-6-ethyl-2,2-spirocyclopentylchroman-4-ylamino)-3-hydroxy-1-phenylbutan-2-yl) morpholine-2-carboxamide]
≤ 5 | CC(C)c1ccc2c(c1)[C@@H](NC[C@@H](O)[C@H](Cc1ccccc1)NC(=O)C1CCCN(c3ccccn3)C1)CC1(CCCC1)O2 (stereo partly drawn) [Example 32, N-((2S,3R)-3-hydroxy-4-((S)-6-isopropyl-2,2-spirocyclopentylchroman-4-ylamino)-1-phenylbutan-2-yl)-1-(pyridin-2-yl)piperidine-3-carboxamide]
≤ 5 | CCc1ccc2c(c1)[C@@H](NC[C@@H](O)[C@H](Cc1ccccc1)NC(=O)C1CN(C3CCCC3)c3ccccc3O1)CC1(CCCC1)O2 (stereo partly drawn) [Example 43, 4-Cyclopentyl-N-((2S,3R)-4-((S)-6-ethyl-2,2-spirocyclopentylchroman-4-ylamino)-3-hydroxy-1-phenylbutan-2-yl)-3,4-dihydro-2H-benzo[b][1,4]oxazine-2-carboxamide]
≤ 5 | CCc1ccc2c(c1)[C@@H](NC[C@@H](O)[C@H](Cc1ccccc1)NC(=O)[C@H]1CN(C)c3ccccc3O1)CC1(CCCC1)O2 [Example 47, (R)—N-((2S,3R)-4-((S)-6-ethyl-2,2-spirocyclopentylchroman-4-ylamino)-3-hydroxy-1-phenylbutan-2-yl)-4-methyl-3,4-dihydro-2H-benzo[b][1,4]oxazine-2-carboxamide]
≤ 5 | CCc1ccc2c(c1)[C@@H](NC[C@@H](O)[C@H](Cc1ccccc1)NC(=O)C1CN(C)c3ccccc3O1)CC1(CCCC1)O2 (stereo partly drawn) [Example 48, (S)—N-((2S,3R)-4-((S)-6-ethyl-2,2-spirocyclopentylchroman-4-ylamino)-3-hydroxy-1-phenylbutan-2-yl)-4-methyl-3,4-dihydro-2H-benzo[b][1,4]oxazine-2-carboxamide]
≤ 5 | CCc1ccc2c(c1)[C@@H](NC[C@@H](O)[C@H](Cc1ccccc1)NC(=O)C1Cc3ccccc3N(C)C1)CC1(CCCC1)O2 (stereo partly drawn) [Example 49, N-((2S,3R)-4-((S)-6-ethyl-2,2-spirocyclopentylchroman-4-ylamino)-3-hydroxy-1-phenylbutan-2-yl)-1-methyl-1,2,3,4-tetrahydroquinoline-3-carboxamide]
≤ 5 | CCc1ccc2c(c1)[C@@H](NC[C@@H](O)[C@H](Cc1ccccc1)NC(=O)[C@H]1CN(C(C)=O)c3ccccc3O1)CC1(CCCC1)O2 [Example 50, (R)-4-acetyl-N-((2S,3R)-4-((S)-6-ethyl-2,2-spirocyclopentylchroman-4-ylamino)-3-hydroxy-1-phenylbutan-2-yl)-3,4-dihydro-2H-benzo[b][1,4]oxazine-2-carboxamide]
